According to patent US4209439A, “Stabilization of vinyl resins” (priority 1977, dated 1980):
“And” between values parts separate entries of the source, which are not always exact repeats. Equal entries are not always repeated.

Legend:
Assay type in all cases: physicochemical
[1] = migration of stabiliser from PVC into solutions or solvents simulating foods at 50° C.
Experimental: (§1) The technique as regards extraction was the following: using the formula which is given below, a batch of bottles (volume 1 liter, diameter 70 mm, height.perspectiveto.230 mm) was prepared, the said bottles being filled with a liquid simulating the foods. […] The migration of the stabiliser was judged by dosage of the pyridine present in the extractum, using the dosage method which is later described. This pyridine obviously represents the oxidised form of the extracted 1,4-dihydropyridine.
(§2) The stabilisers are measured out in the form of their oxidation product (pyridine).
(§3) The oxidation is made quantitative by adding a few drops of iodine to the solution. The latter is then extracted with chloroform and the chloroform is evaporated to a small residual volume. The solution obtained is then subjected to thin-film chromatography, by comparison with solutions of known concentration of the desired pyridines.
(§4) The sensitivity threshold of this technique is 5 μg/liter.
For justifying the possibility of using the dihydropyridines (I) having a radical R comprising from 9 to 22 carbon atoms in applications concerned with food packaging, other than those applications relating to mineral waters, the extractability of the dihydropyridines by several solutions or solvents having the following composition, by weight, was investigated:
(a) water-sodium chloride: 97-3
(b) water-saccharose: 90-10
(c) water-sodium chloride-acetic acid: 98.5-0.5-1
(d) water-citric acid (solution at pH=5): 98-2
(e) water-acetic acid: 97-3
(f) water-acetic acid: 90-10
(h) water-acetic acid: 50-50

[2] = migration of stabiliser from PVC bottles into water at 50° C.; details: water 50° C.
Experimental: 2.2--Study of the migration
The migration or the extractability of the stabiliser from the PVC compound under the effect of various liquids (and particularly water) stored in a plastic container is of essential importance for the use of these stabilisers in the field of food packagings.
as §1
The investigation was particularly developed for water at 50° C. over a period of 2 months, because it represents the important problem regarding the packaging of mineral waters.
Formula for the manufacture of bottles
The S L 2016 is a solution of zinc 2-ethyl hexanoate in a mixture of aromatic hydrocarbons boiling from 158° to 184° C.
as §2, §3, §4

[3] = sublimation at 160° C. for 6 hours under nitrogen; details: for % of sublimed product: 160° C., 6 hours, nitrogen; for sublimation: of the quantity of product being used
Experimental: A test sample of about 130 mg of the product to be investigated is introduced into a 100 cc beaker. The latter is placed in a 250 cc reactor. The temperature is kept at 160° C. by means of a thermostatically controlled oil bath for 6 hours, the atmosphere of the reactor being inert (nitrogen) in order to avoid the oxidation of the 1,4-dihydropyridine into pyridine, which is more sublimable.
For each dihydropyridine derivative which is investigated, the result is expressed as a percentage of sublimed product relatively to the quantity being used.

[4] = polarographic study of the oxidation potential (Example 30); details: acetonitrile, lithium perchlorate; calomel electrode; in V (unit assumed)
From the text: 261. Polarographic study of the oxidation potential […]
reference electrode: a calomel electrode which contains, as junction liquid, a saturated solution of anhydrous lithium perchlorate working electrode: rotating electrode of vitreous carbon (2500 r.p.m.) counter-electrode: platinum. acetonitrile, having a water content smaller than 0.1% and not presenting any polarographic waves between -2.5 volts and +2.5 volts.
0.1 M solution of lithium perchlorate in acetonitrile, treated and preserved on a molecular screen of 4 A. […]
exploration amplitude: 0 to 2 V exploration speed: 10 mV/sec.

[5] = polarographic oxidation potential (Example 31); details: 0.5 m.mole/liter; methanol/acetic acid; 35° C.
Experimental: platinum counter-electrode and calomel electrode with filling by a saturated aqueous solution of lithium chloride.
The measurements were carried out in the following solvent:
90 parts of an 0.1 M solution of lithium perchlorate in methanol, 10 parts of a 0.1 M solution of perchloric acid in acetic acid. square voltage superimposed with constant pulses of +10 millivolts, initial potential: 500 millivolts, scanning voltage: 1000 millivolts in the anode direction, oxidation at the vitreous carbon electrode (speed of rotation: 2000 r.p.m.)

Compound	Migration ([1]; H2O/NaCl (97:3), 0.3, 1 month) [µg/L]	Migration ([1]; H2O/NaCl (97:3), 0.3, 2 months) [µg/L]	% of sublimed product [3] [%]	Migration ([2]; 0.15 pct, 1 month) [µg/L]	Migration ([2]; 0.15 pct, 2 months) [µg/L]	Migration ([2]; 0.15 pct, 10 days) [µg/L]	Migration ([2]; 0.15 pct, 20 days) [µg/L]	Migration ([2]; 0.30 pct, 1 month) [µg/L]	Migration ([2]; 0.30 pct, 2 months) [µg/L]	Migration ([2]; 0.30 pct, 10 days) [µg/L]	Migration ([2]; 0.30 pct, 20 days) [µg/L]	other results
c1ccc(-c2cc3ccccc3[nH]2)cc1 [2-phenyl indole, reference compound]	90	140	62	–	–	–	–	–	–	–	–	Migration ([2]; 0.30 pct, 1 month, listed as Control): 100 µg/L and 110 µg/L and 120 µg/L; Migration ([2]; 0.30 pct, 2 months, listed as Control): 100 µg/L and 110 µg/L and 130 µg/L; Migration ([2]; 0.30 pct, 10 days, listed as Control): 75 µg/L and 70 µg/L and 80 µg/L; Migration ([2]; 0.30 pct, 20 days, listed as Control): 90 µg/L and 100 µg/L; sublimation [3]: 62%
COc1ccc(O)cc1 [4-Methoxy phenol]	–	–	–	–	–	–	–	–	–	–	–	Oxidation potential [4]: 0.89 ± 0.01
Cc1cc(C(C)(C)C)c(O)c(C(C)(C)C)c1 [BHT, Di-tert.-2,6-butyl-4-methyl phenol, reference compound]	–	–	–	–	–	–	–	–	–	–	–	Oxidation potential [5]: 1163 millivolts; Oxidation potential [4]: 1.11 ± 0.02
Oc1ccc(O)cc1 [Hydroquinone]	–	–	–	–	–	–	–	–	–	–	–	Oxidation potential [4]: 0.83 ± 0.01
CCOC(=O)C1=C(C)NC(C)=C(C(=O)OCC)C1 [L.28501, 2,6-Dimethyl-3,5-dicarboethoxy-1,4-dihydropyridine]	120	150	82.9	100	100	20	50	150	150	90	120	Oxidation potential [4]: 0.73 ± 0.01
CCCCCCCCOC(=O)C1=C(C)NC(C)=C(C(=O)OCCCCCCCC)C1 [L.28502]	–	–	7.2	–	–	–	–	–	–	–	–	sublimation [3]: 7%
CC1=C(C(=O)OC(C)C)CC(C(=O)OC(C)C)=C(C)N1 [L.28506]	–	–	98.1	–	–	–	–	–	–	–	–	–
CCCOC(=O)C1=C(C)NC(C)=C(C(=O)OCCC)C1 [L.28509]	–	–	79.1	–	–	–	–	–	–	–	–	–
CCCCOC(=O)C1=C(C)NC(C)=C(C(=O)OCCCC)C1 [L.28552, 2,6-Dimethyl-3,5-dicarbobutoxy-1,4-dihydropyridine]	80	100	39.2	90	100	15	40	130	130	80	120	–
CCCCCCCC/C=C\CCCCCCCCOC(=O)C1=C(C)NC(C)=C(C(=O)OCCCCCCCC/C=C\CCCCCCCC)C1 [L.28602]	–	–	–	–	–	–	–	–	–	–	–	Oxidation potential [5]: 808 millivolts

Second part, led by results:

Migration ([1]; H2O/NaCl (97:3), 0.3, 1 month) [µg/L]	Migration ([1]; H2O/NaCl (97:3), 0.3, 2 months) [µg/L]	% of sublimed product [3] [%]	Migration ([2]; 0.15 pct, 1 month) [µg/L]	Migration ([2]; 0.15 pct, 2 months) [µg/L]	Migration ([2]; 0.15 pct, 10 days) [µg/L]	Migration ([2]; 0.15 pct, 20 days) [µg/L]	Migration ([2]; 0.30 pct, 1 month) [µg/L]	Migration ([2]; 0.30 pct, 2 months) [µg/L]	Migration ([2]; 0.30 pct, 10 days) [µg/L]	Migration ([2]; 0.30 pct, 20 days) [µg/L]	Compound	other results
< 5	< 5	1.7	< 5	< 5	< 5	< 5	< 5	< 5	< 5	< 5	CCCCCCCCCCCCOC(=O)C1=C(C)NC(C)=C(C(=O)OCCCCCCCCCCCC)C1 [L.28507, 2,6-Dimethyl-3,5-dicarbododecyloxy-1,4-dihydropyridine]	Oxidation potential [5]: 783 millivolts; Migration ([1]; Heptane, 0.3 pcr, after 36 h): 120 µg/L; Migration ([1]; Heptane, 0.3 pcr, after 84 h): 150 µg/L; Migration ([1]; Water/C2H5OH (50:50), 0.3, 1 month): 50 µg/L; Migration ([1]; Water/C2H5OH (85:15), 0.3, 1 month): < 5 µg/L; Migration ([1]; Water/C2H5OH (85:15), 0.3, 2 months): < 5 µg/L; Migration ([1]; Water/CH3COOH (50:50), 0.3, 1 month): 25 µg/L; Migration ([1]; Water/CH3COOH (90:10), 0.3, 1 month): < 5 µg/L; Migration ([1]; Water/CH3COOH (90:10), 0.3, 2 months): < 5 µg/L; Migration ([1]; Water/CH3COOH (97:3), 0.3, 1 month): < 5 µg/L; Migration ([1]; Water/CH3COOH (97:3), 0.3, 2 months): < 5 µg/L; Migration ([1]; Water/NaCl/CH3COOH (98,5:0,5:1), 0.3, 1 month): < 5 µg/L; Migration ([1]; Water/NaCl/CH3COOH (98,5:0,5:1), 0.3, 2 months): < 5 µg/L; Migration ([1]; Water/Sacchrose (90:10), 0.3, 1 month): < 5 µg/L; Migration ([1]; Water/Sacchrose (90:10), 0.3, 2 months): < 5 µg/L; Migration ([1]; Water/citric acid (98:2), pH 5, 0.3, 1 month): < 5 µg/L; Migration ([1]; Water/citric acid (98:2), pH 5, 0.3, 2 months): < 5 µg/L
< 5	< 5	0.1	< 5	< 5	< 5	< 5	< 5	< 5	< 5	< 5	CCCCCCCCCCCCCCOC(=O)C1=C(C)NC(C)=C(C(=O)OCCCCCCCCCCCCCC)C1 [L.28590, 2,6-Dimethyl-3,5-dicarbotetradecyloxy-1,4-dihydropyridine]	Oxidation potential [5]: 732 millivolts
–	–	1.7	–	–	–	–	–	–	–	–	CCCCCCCCCCOC(=O)C1=C(C)NC(C)=C(C(=O)OCCCCCCCCCC)C1 [L.28591]	–
< 5	< 5	1.2	< 5	< 5	< 5	< 5	< 5	< 5	< 5	< 5	CCCCCCCCCCCCCCCCCCOC(=O)C1=C(C)NC(C)=C(C(=O)OCCCCCCCCCCCCCCCCCC)C1 [L.28599, 2,6-Dimethyl-3,5-dicarbooctadecyloxy-1,4-dihydropyridine]	–
–	–	0.4	–	–	–	–	–	–	–	–	CCCCCCCCCCCCCCCCCCCCCCOC(=O)C1=C(C)NC(C)=C(C(=O)OCCCCCCCCCCCCCCCCCCCCCC)C1 [L.28601]	–
